Assays:
Type in all cases: cell-based
human sperm = experiment: Acrosome reaction in live human sperm (PSA-FITC flow cytometry); conditions: 45 min; for cells with induced acrosome reaction: steroid 10 µM, capacitated sperm, increase not significant
Procedure: The evaluation of acrosome reaction in live human sperm cells was performed using a modified version of a previously described method ([Zoppino et al., 2012]). Briefly, swim-up recovered motile spermatozoa were allowed to capacitate for 4 h at 37°C in capacitating media (HTF+) containing: 93.8 mM NaCl, 4.7 mM KCl, 0.2 mM MgSO4, 0.369 mM KH2PO4, 2.04 mM CaCl2, 20.98 mM HEPES, 2.78 mM glucose, 21.4 mM Na-lactate, 25 mM NaHCO3, 6.6 µM Na-pyruvate, and the pH was adjusted to 7.35. Capacitated sperm were then incubated for 30 min with 5 μg/mL Pisum sativum agglutinin conjugated with fluorescein isothiocyanate (PSA-FITC) and 10 μg/mL Hoechst-33342. Samples were centrifuged at 700 x g for 10 min at room temperature to remove excess dye and resuspended in HTF+. Sperm were then incubated for 45 min in the absence (DMSO) or presence of the steroids at 10 μM, or positive control P4 at 10 µM. The ionophore A23187 was also used as a positive control and incubated with sperm at 2 µM for 30 min only. PI (0.5 μg/mL) was then added to all samples which were analyzed using BDFACSAria. FITC-PSA fluorescence was detected by excitation at 475 nm and emission at 560/35 nm, PI was detected by excitation at 530 nm and emission at 675/75 nm and Hoechst was detected by excitation at 346 nm and emission at 460 nm. Hoechst-positive and PI-negative cells were classified as live cells. Doublet exclusion was performed by two-dimensional dot plot analysis of forward-scatter width (FSC-W) versus forward-scatter height (FSC-H), and side-scatter width (SSC-W) versus side-scatter height (SSC-H) on the pre-selected singlets. Data were collected from 40,000 […] per sample to define the sperm population. Based on the selected population, PI-negative and PSA-FITC-positive cells were selected as live acrosome reacted cells, whereas PI-negative and PSA-FITC-negative cells were selected as live acrosome intact cells.

CatSper [1] = molecular target: T1, CatSper (Homo sapiens, UniProt Q7RTX7+Q86XQ3+Q8NEC5+Q96P56); experiment: Inhibition of PGE1-induced Ca2+ influx in human sperm (screen 2 inhibitors)
T1 construct: Motile spermatozoa were selected by a ‘swim-up’ procedure; endogenous in cells; host or cells: motile human spermatozoa (swim-up) from healthy donors
Procedure: Briefly, motile spermatozoa were selected by swim-up and labeled with the fluorescent calcium indicator Fluo-4 a.m. to image changes in [Ca^2+]i. After centrifugation to remove excess dye, Fluo-4 AM loaded cells were distributed in a 384-wells plate to obtain ∼125,000 cells/well. After measuring basal fluorescence, a first injection of compounds was performed in order to evaluate their effect on [Ca^2+]i alone. This first screen is therefore considered as a screen to search for ‘activators’. Fluorescence was recorded for 12 min during which sperm cells were continuously exposed to compounds. P4 or PGE1 were then added in the same wells to evaluate whether the tested compounds can reduce the ligand-induced activation of CatSper. This second screen was therefore considered to be a search for CatSper ‘inhibitors’.
Human semen samples were collected from healthy donors by masturbation after a recommended sexual abstinence period of minimum 2 days. Semen samples were allowed to liquefy at 37°C for 15–30 min. Motile spermatozoa were selected by a ‘swim-up’ procedure as previously described ([Strünker et al., 2011]). Briefly, 1 mL of semen was deposited in a 45°-inclined 50 mL Falcon tube with 4 mL of Human Tubular Fluid (HTF) medium containing: 93.8 mM NaCl, 4.7 mM KCl, 0.2 mM MgSO4, 0.37 mM KH2PO4, 2.04 mM CaCl2, 20.98 mM HEPES, 2.78 mM glucose, 21.4 mM Na-lactate, 4 mM NaHCO3, 0.33 mM Na-pyruvate, and the pH was adjusted to 7.35. Motile sperm were allowed to swim at 37°C for 1 hour. The supernatant was collected in 15 mL Falcon tubes and washed twice by centrifugation at 700 x g for 20 min. Sperm were supplemented with 3 mg/mL HSA. Written informed consent was obtained from all donors prior to donation and approved by the Cantonal Ethics Committee of the State of Geneva (CCER #14-147).
Cells were loaded with the fluorescent Ca^2+ indicator Fluo-4 AM at a final concentration of 2.5 µM for 30 min at 37°C. Excess dye was washed via centrifugation at 700 x g for 20 min and sperm were resuspended in HTF medium to obtain a final concentration of 6.25 x 10^6 cells/mL. 20 μL of cells (corresponding to ∼125,000 cells) loaded with Fluo-4 a.m. were dispensed in a 384-wells plate (Corning, NY, United States) to allow fluorescence measurement. The dye was excited at 480 nm, and emission was recorded at 530 nm. The change in [Ca^2+]i was assessed simultaneously in all wells using a Functional Drug Screening System (FDSS/μCELL) (Hamamatsu Phototonics K.K., Yokohama, Japan) at 37°C. Basal fluorescence was first measured for 30 s. […] P4 and PGE1 were tested at a near-saturating concentration in the HTS in order to evaluate a potential additive or synergistic effect induced by the compounds. Non-specific CatSper inhibitor MDL 12330A was used as a negative control at final concentration of 20 µM while DMSO was used as a vehicle control. For alkalization-induced Ca^2+ measurement, NH4Cl was used as a positive control at a final concentration of 10 mM. Fluorescence was recorded for a total of 16.5 min: 30 s before injection, 12 min after the first injection of the tested compounds, and 4 min after the second injection of either P4 or PGE1. The Prestwick library was tested in technical duplicate. Ca^2+ response curves were normalized using the following formula F−F0/F0×100 , where F 0 is the average of the basal fluorescence prior to the addition of the compound of interest and F corresponds to the fluorescence value at each time point. The ∆F/F0 of the vehicle control (DMSO) was subtracted from all the other values to adjust for dilution and pipetting artifacts. The values of all compounds were normalized to their respective controls.

CatSper [2] = molecular target: T1, CatSper; experiment: Cross-desensitization: P4 dose-response after pre-incubation with steroid at 10 µM; conditions: in the presence of predicted steroid at 10 µM, normalized to DMSO; P4 = control curve; n = 3; read-out: EC50 generated from concentration-response curves of P4-induced [Ca2+]i influx

| Compound | cells with induced acrosome reaction (human sperm) | IC50 (CatSper [1]) [nM] | effect on acrosome reaction (AR) (human sperm; steroids 10 µM, P4 10 µM) | EC50 (CatSper [2]) [nM] |
| --- | --- | --- | --- | --- |
| C[C@]12CC[C@H](O)C[C@@H]1CC[C@@H]1[C@@H]2CC[C@]2(C)C(=O)CC[C@@H]12 [Epiandrosterone] | more than 10% | – | – | – |
| CC(=O)[C@H]1CC[C@H]2[C@@H]3CC=C4C[C@@H](O)CC[C@]4(C)[C@H]3CC[C@]12C [Pregnenolone] | more than 10% | 11 | – | – |
| CC(=O)[C@H]1CC[C@H]2[C@@H]3CCC4=CC(=O)CC[C@]4(C)[C@H]3CC[C@]12C [Progesterone] | – | – | only slightly increased the AR | 5 |
| C[C@]12Cc3c[nH]nc3C[C@@H]1CC[C@@H]1[C@@H]2CC[C@@]2(C)[C@H]1CC[C@]2(C)O [Stanozolol] | more than 10% | 117 | – | – |

— publication PMC10397409, “The action of physiological and synthetic steroids on the calcium channel CatSper in human sperm” (Frontiers in Cell and Developmental Biology, 2023)
